The source of these data is patent publication US20240423954A1, “Chlorthalidone Compositions And Methods” (Nivagen Pharmaceuticals, Inc., priority 2020, published 2024).

This series in a line: Initial experiments on chlorthalidone API in solution. The settings on record: without excipients; would agglomerate and cake. The series is classed as physicochemical. The text has this:
Accordingly, for stabilizing the chlorthalidone in a stabilized suspension, the inventors contemplated combining the chlorthalidone with select excipients. These excipients include at least a solubilizing and/or a wetting agent, at least one suspending agent, at least one viscosity increasing agent or at least one anti-caking agent, and water. The suspension may also further include an anti-foaming agent, at least one antimicrobial, and at least one sweetening agent.

SMILES strings stand for the structures.

Regarding `NS(=O)(=O)c1cc(C2(O)NC(=O)c3ccccc32)ccc1Cl` (stereo not shown) [chlorthalidone, Chlorthalidone], the “stability of the API in solution” value is on record as “not stable in solution”.
